Consider one compound from US20230241256A1, “NON-INTUITIVE COMBINATION OF DRUG DELIVERY CARRIERS OF THE SAME DRUG FOR SYNERGISTIC GROWTH DELAY OF SOLID TUMORS” (The Johns Hopkins University, priority 2020, published 2023).

Test [1] has as its system Trastuzumab-sensitive BT474 breast cancer cells. As to the kind of experiment: Clonogenic (colony) survival, BT474. Format: cell-based, human. As to conditions: 6 hour incubation at 37° C.; pH 7.4 or 6.0; monolayers. The protocol:
(§1) Cold conditions of liposomes and the antibody are indicated at zero radioactivity concentration. Error bars correspond to standard deviations of repeated measurements (4-6 samples per radioactivity concentration);
(§2) After incubation for 6 hours of cell monolayers with varying concentrations of radioactivity, the cells were washed and were plated in dishes to grow until formation of colonies, as described in detail in Prasad et al., 2021.

The test system of test [2] is Trastuzumab-resistant BT474-R breast cancer cells. Nature of the test: Clonogenic (colony) survival, BT474-R. As to conditions: 6 hour incubation at 37° C.; pH 7.4 or 6.0; monolayers. The test is classed as cell-based, human. The protocol: as §1, §2

For the compound `O=C([O-])CN1CCN(CC(=O)[O-])CCN(CC(=O)[O-])CCN(CC(=O)[O-])CC1.[225Ac+3]` [free [^225Ac]Ac-DOTA], the colony survival response result in test [1] and in test [2] was “same sensitivity” throughout.
